Data on 7 compounds can be found in US5332531A, “Extracting metal ions with diphosphonic acid, or derivative thereof” (priority 1992, dated 1994).

Structures can show the parent of a compound that is named as a salt. Where two headings read alike, the source gives them in different places.

Data set [1] in a line: Autodecomposition / storage stability at room or ambient temperature. In kind it is physicochemical.
Data set [2] can be described thus: Aqueous solubility of metal ion complexes. In kind it is physicochemical. As for the experimental part: (§1) In addition, compounds were screened for their ability to readily decompose. Thermal degradation of the thermodynamically-unstable complexing agents was performed by heating the complexing agent in 8M HNO3 at 100° C. The thermal degradation of the compounds were followed by analysis via ^1 H, ^13 C and ^31 P NMR (nuclear magnetic resonance) spectroscopy. Furthermore, the water-solubility of metal ion complexes formed with the inventive complexing agents was determined by using macroquantities of neodymium (III), i.e., Nd(III); thorium (IV), i.e., Th(IV), and uranium (VI), i.e., U(VI).
(§2) After synthesis, the thermodynamically-unstable complexing agents of the present invention were tested for thermal stability and susceptibility to oxidation by using ^1 H, ^13 C and ^31 P NMR spectroscopy. Furthermore, the acid dissociation constants, i.e., the pKa values, of the thermodynamically-unstable complexing agents were determined by standard potentiometric titration methods. Finally, the thermodynamically-unstable diphosphonic acid complexing agents of the present invention were analyzed with respect to their ability to complex metal ions and with respect to the aqueous solubility of the resulting metal ion complexes. In addition, the solubility of the uncomplexed thermodynamically-unstable complexing agents was determined by using macro-concentrations of neodymium(III) as a substitute for the trivalent actinides; of thorium(IV), as a substitute for plutonium(IV) and neptunium(IV); of uranyl(VI), as representative for all actinide(VI) ions; of iron(III); and of zirconium. The variables included in this solubility determination were the thermally-unstable complexing agent-to-metal ion ratio, the metal ion concentration, and the pH.

The format of data set [3] is physicochemical. Particulars: for resistance to degradation: mild thermal and/or oxidation conditions. As for the experimental part: as §1
As a result, autodecomposition is observed when the thermodynamically-unstable complexing agents of the present invention complex with metal ions such as ruthenium or tungsten.
as §2
More particularly, ^1 H, ^13 C, and ^31 P NMR spectroscopy was used to elucidate and measure the thermal degradation pathways of the thermally-unstable complexing agents of structural formula I, and to evaluate synthesis efforts. For example, ^31 P NMR spectroscopy is especially valuable in identifying the type of phosphorus compound that is synthesized or the type of phosphorous compound produced upon degradation of the thermally-unstable complexing agent. As a result, ^31 P NMR spectroscopy provides a method of showing that a particular diphosphonic acid compound actually was synthesized.

Data set [4] is described as follows: Acid dissociation constants by potentiometric (pH) titration. In kind it is physicochemical. As to conditions: for pK1 / pK2 / pK3 / pK4: ionic strength 2 M (NaNO3). On the procedure:
as §2
In addition, the thermodynamics of protonation of the thermodynamically-unstable complexing agents of the present invention was investigated by potentiometric (pH) titration.
The acidity constants of the thermodynamically-unstable complexing agents are important in the interpretation of metal ion complexation studies, and also serve as a preliminary indicator of metal ion complex stability and conformation. TABLE III summarizes the acid dissocation constants (pKa) of three substituted diphosphonic acids of the present invention. The acid dissociation constants of oxalic and phosphoric acids are included for comparison.
Metal ion complexation with the thermodynamically-unstable complexing agent was investigated using the solvent extraction distribution ratio method. The medium used in all of the protonation and complexation studies was 2.0M NaNO3 /HNO3. The relatively high ionic strength of this medium was utilized in order to minimize interferences due to activity coefficient changes. Data interpretation in all experiments was accomplished by the application of a generic least-squares program written in BASIC. The program applies a Newton-Raphson type iterative process to the data and minimizes the sum of squares of the residuals. The generic program was adapted to several different forms to fit distribution ratio lowering (Do/D) vs. free ligand concentration measurements, and p (average proton number) data from potentiometric titrations.

The next data set in a line: Dissolution of Goethite. Particulars: 0.5M solution, 100 mg Goethite, 80° C., four hours. The text has this:
One difficulty, is to ensure contact with ions "embedded" in the surface to be decontaminated. This usually requires destruction or dissolution of a surface oxide layer when the surface is metal. […] This oxide of iron is considered one of the more difficult to penetrate.

Data set [5] in a line: Removal of uranium from groundwater, supported liquid membrane-based process. Particulars: 60° to 70° C. overnight, strip solution with uranium. From the text: Aqueous solutions of the thermodynamically-unstable complexing agents of the present invention can be used in commercially available supported liquid membrane-based modules to strip metal ion contaminants from aqueous solution. Other devices using a porous membrane separating means can also be used. In general the aqueous solution containing uranium is in contact with one side of the porous membrane and the aqueous solution of the complexing agent is in contact with the other. A known organic extractant is permeated into the pores of the membrane to carry the metal ions from one side to the other. The aqueous solution of the complexing agent strips metal ions from the organic extractant in the pores, driving the extraction "reaction" toward removal of metal ions from the solution to be decontaminated.
Aqueous solutions of the thermodynamically-unstable complexing agent described in this application are useful as stripping agents in a supported liquid membrane-based process for removal of uranium contaminants from groundwater. In this process, groundwater containing 10^-4 M uranium is acidified to pH of 2 by addition of small amounts of sulfuric acid and passed through porous polypropylene hollow fibers in a supported liquid membrane module. The pores of the membrane are filled with 0.1M bis(2,4,4-trimethylpentyl)phosphinic acid in n-dodecane. […]

For data set [6] the following is noted: 1 M ionic strength, included for comparison; cited from earlier work.

`O=C(O)C(O)(P(=O)(O)O)P(=O)(O)O` [compound VII, carboxyhydroxymethanediphosphonic acid]: in data set [1] (free acid form), the products of autodecomposition result is “carbon dioxide, water and phosphoric acid”. Further, in data set [1] (free acid form, room temperature), the “half-life of autodecomposition (in words)” value was “from about two days to about three days”.

As to `O=P(O)(O)C(O)(CO)P(=O)(O)O` [tetrasodium salt of compound X], the stability entry in data set [1] (sodium (tetrasodium) salt form) is “stable indefinitely at room temperature”.

With `CC(O)(P(=O)(O)O)P(=O)(O)O` [HEDPA, 1-hydroxyethane-1,1-diphosphonic acid, reference compound], in data set [2] (acid media), the “aqueous solubility of neodymium (III) complexes” value was “only moderate aqueous solubilities” and the “aqueous solubility of thorium (IV) complexes” value is on record as “only moderate aqueous solubilities”. Besides, the resistance to degradation result in data set [3] was “ability to resist decomposition”. Besides, the resistance to degradation result in data set [3] (listed as compound VIII) is reported as “resisted degradation under mild thermal and/or oxidation conditions”. In data set [4], this compound returned a pK1 of 1.53, a pK2 of 2.16, a pK3 of 6.18 and a pK4 of 9.09.

For the compound `O=P(O)(O)C(O)(CO)P(=O)(O)O` [DHEDPA, 1,2-dihydroxyethane-1,1-diphosphonic acid], the products of autodecomposition result in data set [1] (free acid form) was “water, carbon dioxide and phosphoric acid”. Further, in data set [1] (free acid form, as taught by prior art patent references), the “conversion on previous attempts to isolate free acid” value is on record as “essentially immediate conversion”. Further, in data set [1] (free acid form, room / ambient temperature), the half-life of autodecomposition result is given as “about 15 days”. In data set [1] (free acid form, listed as compound X), the products of autodecomposition result is “phosphorous and phosphoric acids”. Further, in data set [1] (sodium (tetrasodium) salt form, listed as 1,2-dihydroxyethane-1,1-diphosphonic acid), the stability result is given as “stable indefinitely”. Also, the “time to total decomposition” value in data set [3] (free acid form, boiling 8M HNO3) was “about 3 hours”. In addition, in data set [3] (free acid form, hydrogen peroxide at about 60° C.), the decomposition entry was “totally decomposes”. The “acid strength (in words)” value in data set [4] (TABLE III comparison) was “strongest acid”. In data set [4], this compound had a pK1 of 0.91, a pK2 of 1.59, a pK3 of 5.82 and a pK4 of 7.97.

`O=C(O)CC(=O)O` [malonic acid, reference compound] returned a Goethite dissolved in the data set “Dissolution of Goethite” of 8%.

As for `C=C(P(=O)(O)O)P(=O)(O)O` [VDPA, vinylidenediphosphonic acid], the “solubility of metal ion complexes” value in data set [2] (acidic media) is recorded as “very soluble”. Moreover, the stability result in data set [1] (free acid form) was “stable”. The stability entry in data set [1] (sodium (tetrasodium) salt form) was “stable”. Further, the decomposition entry in data set [3] (aqueous hydrogen peroxide, moderately elevated temperatures) is “decomposes within hours”. In addition, the decomposition result in data set [3] (boiling nitric acid) is reported as “decomposes within hours”. Besides, the “decomposition by metal catalyzed oxidation” value in data set [3] (hydrogen peroxide, metal catalyzed) is “readily decomposed”. Also, the “decomposition after complexing with a metal ion” value in data set [3] (salts of vanadium(V)) was “can be decomposed by salts of vanadium(V) under very mild conditions”. Besides, in data set [4], the pK1 amounted to 1.41, the pK2 was 2.05, the pK3 was 5.98 and the pK4 came to 8.58. Also, the “time of destruction by heating” value in data set [5] is listed as “about 5 hours”. The compound also came in with a Goethite dissolved in “Dissolution of Goethite” of 40%.

Turning to `O=C(O)C(=O)O` [Oxalic Acid, oxalic acid], in data set [6], the pK2 was 3.55.
